From US5502066A, “1,2,4-dithiazolium salts as chemotherapeutics” (Bayer Aktiengesellschaft, priority 1993, dated 1996)

Legend:
[1] = system: endotoxemic shock in D-GalN-sensitized mice; assay: in vivo; set-up: lethality, Dose 10 mg/kg / lethality, Dose 30 mg/kg / lethality, Dose 60 mg/kg: unit not given here; settings: LPS + D-GalN control 100, 48 hours; for lethality, Dose 10 mg/kg: 10 mg/kg i.p. one hour before LPS (0.1 μg/mouse) + D-GalN (60 mg/kg); for lethality, Dose 30 mg/kg: 30 mg/kg i.p. one hour before LPS (0.1 μg/mouse) + D-GalN (60 mg/kg); for lethality, Dose 60 mg/kg: 60 mg/kg i.p. one hour before LPS (0.1 μg/mouse) + D-GalN (60 mg/kg)
Procedure: (§1) Substances from the class of dithiazolium salts are described in their protective action by way of example in the following: in vitro in the TNF-α-mediated cytotoxicity test, and in vivo on mice which have been exposed to an endotoxin shock.
(§2) In vivo experiments on inhibition of provoked endotoxin shock were carried out on female inbred mice (F1 B6D2!). Endotoxin/lipopolysaccharide (LPS) from Salmonella abortus equi (0.1 μg/mouse) was administered intraperitoneally or intravenously in association with D-galactosamine hydrochloride (D-GalN; 60 mg/kg of bodyweight) in accordance with reports by Galanos et al. (1979, Proc. Natl. Acad. Sci. USA 76: 5939; V. Lehmann et al. 1987, J. Exp. Med. 165: 657). The substances were administered intraperitoneally one hour before inducement of the endotoxemic shock. The observation period was 48 hours.

in vivo = assay: in vivo; set-up: lethality, Dose 10 mg/kg / lethality, Dose 30 mg/kg / lethality, Dose 60 mg/kg: unit not given here; settings: mouse, in vivo, ip; substance 60 mg/kg + D-GalN 60 mg/kg, without LPS; mice; observation 48 hours; read-out: lethality, Substance + D-GalN control
Procedure: as §1, §2

Which results are given for `CC1C[N+](=c2nc(N(C)C)ss2)CC(C)O1.[I-]` (centres unmarked) [Example 2, 4-(5-dimethylamino-3H-1,2,4-dithiazole-3-ylidene)-2,6-dimethyl-morpholinium iodide]?
lethality, Dose 10 mg/kg [1]: 100; lethality, Dose 30 mg/kg [1]: 20; lethality, Dose 60 mg/kg [1]: 0; mortality at 48 h (in vivo): 0%

Which results are given for `CN(C)c1nc(=[N+](C)c2ccccc2)ss1.F[B-](F)(F)F` [Example 3, N-(5-dimethylamino-3H-1,2,4-dithiazole-3-ylidene)-N-methylanilinium tetrafluoroborate]?
lethality, Dose 10 mg/kg [1]: 80; lethality, Dose 30 mg/kg [1]: 40; lethality, Dose 60 mg/kg [1]: 0; mortality at 48 h (in vivo): 0%

For `CN(C)c1nc(=[N+]2CCOCC2)ss1` [Example 5], which “lethality, Dose 10 mg/kg” value [1] is on record?
Its value is 40.

And the “lethality, Dose 30 mg/kg” value [1]?
The value was 0.

What about the “lethality, Dose 60 mg/kg” value [1] of the same molecule?
The value was 0.

And the mortality at 48 h (in vivo)?
Its mortality at 48 h is 0%.

Which results are given for `CN1CC[N+](=c2nc(N(C)C)ss2)CC1` [Example 8]?
lethality, Dose 10 mg/kg [1]: 40; lethality, Dose 30 mg/kg [1]: 0; lethality, Dose 60 mg/kg [1]: 0; mortality at 48 h (in vivo): 0%

With `CC(C)[N+](=c1nc(N(C)C)ss1)C(C)C` [Example 10] as the molecule, how does the “lethality, Dose 10 mg/kg” value [1] read?
Its value is 20.

And the “lethality, Dose 30 mg/kg” value [1]?
Its value is 0.

And the “lethality, Dose 60 mg/kg” value [1]?
Its value is 0.

And the mortality at 48 h (in vivo)?
Its mortality at 48 h is 0%.

With `CN(C)c1nc(=[N+](C)Cc2ccc(Cl)c(Cl)c2)ss1` [Example 43] as the molecule, how does the “lethality, Dose 10 mg/kg” value [1] read?
Its value is 20.

And the “lethality, Dose 30 mg/kg” value [1]?
Its value is 20.

What about the “lethality, Dose 60 mg/kg” value [1] of the same molecule?
Its value is 0.

And the mortality at 48 h (in vivo)?
The mortality at 48 h was 0%.

Which “lethality, Dose 10 mg/kg” value [1] does the source give for `CN(C)c1nc(=[N+](C)Cc2ccc(Cl)cc2)ss1` [Example 46] here?
Its value is 0.

And the “lethality, Dose 30 mg/kg” value [1]?
The value was 0.

What about the “lethality, Dose 60 mg/kg” value [1] of the same molecule?
Its value is 0.

And the mortality at 48 h (in vivo)?
The mortality at 48 h was 0%.

Which “lethality, Dose 10 mg/kg” value [1] does the source give for `CN(C)c1nc(=[N+](C)Cc2ccc(Cl)cc2Cl)ss1` [Example 48] here?
The value was 0.

What about the “lethality, Dose 30 mg/kg” value [1] of the same molecule?
Its value is 0.

What about the “lethality, Dose 60 mg/kg” value [1] of the same molecule?
The value was 0.

And the mortality at 48 h (in vivo)?
Its mortality at 48 h is 0%.
